This experiment concerns MDA-MB-231 cancer cells. In words: Doxorubicin delivery into cancer cells (fluorescence microscopy). The format is cell-based. The settings on record: MDA-MB-231 cells, 10-minute incubation, same amount of doxorubicin (2 μg). The procedure:
The components of fusion liposomes, DOTAL (molecules of type A) and Doxorubicin (molecules of type B), were mixed at a ratio of 1:0.1 mol/mol from 1 mg/ml parent solutions in chloroform.
Following homogenization of the lipid molecules with the aromatic doxorubicin, the organic solvent was removed under vacuum. The dried mixture was placed in 20 mM HEPES solution having a pH of 7.4 and homogenized in an ultrasonic bath for 20 minutes. The final concentration of the fusion mixture was set to 2 mg/ml. After a dilution of 1/100 v/v in DMEM medium, 500 μl of the fusion mixture was added to approximately 100,000 adherent MDA-MB-231 cancer cells and incubated for 10 minutes at 37° C.
A further cell sample was incubated with the same amount of doxorubicin (2 μg) in culture medium without fusion mixture for control purposes. The conventional dosage is 1 mg/ml.
In addition, doxorubicin was introduced into neutral DOPC liposomes (without molecules of type A) (DOPC:Dox at a ratio of 1:0.1 mol/mol) and added to adherent cells in the same concentration as in the other sample (2 μg/ml). […] The results were then compared to each other.

Regarding `COc1cccc2c1C(=O)c1c(O)c3c(c(O)c1C2=O)C[C@@](O)(C(=O)CO)C[C@@H]3O[C@H]1C[C@H](N)[C@H](O)[C@H](C)O1` [free doxorubicin, doxorubicin], the “doxorubicin uptake (fluorescent signal in cells)” value is given as “low fluorescent signal”.

These data come from patent publication US20160060602A1, “FUSION MIXTURE” (FORSCHUNGSZENTRUM JÜLICH GMBH, priority 2013, published 2016).
